Test results reported in ChEMBL document CHEMBL2074408, “Altered pharmacokinetics of vinblastine in Mdr1a P-glycoprotein-deficient Mice” (J Natl Cancer Inst, 1996).

Molecular target: ATP-dependent translocase ABCB1 (Mus musculus, UniProt P21447)
Assay: TP_TRANSPORTER: increase in brain concentration in mdr1a(-/-) mouse
Assay type: functional, organism-based
Settings: in vivo

ATP-dependent translocase ABCB1, sequence (P21447 whole entry): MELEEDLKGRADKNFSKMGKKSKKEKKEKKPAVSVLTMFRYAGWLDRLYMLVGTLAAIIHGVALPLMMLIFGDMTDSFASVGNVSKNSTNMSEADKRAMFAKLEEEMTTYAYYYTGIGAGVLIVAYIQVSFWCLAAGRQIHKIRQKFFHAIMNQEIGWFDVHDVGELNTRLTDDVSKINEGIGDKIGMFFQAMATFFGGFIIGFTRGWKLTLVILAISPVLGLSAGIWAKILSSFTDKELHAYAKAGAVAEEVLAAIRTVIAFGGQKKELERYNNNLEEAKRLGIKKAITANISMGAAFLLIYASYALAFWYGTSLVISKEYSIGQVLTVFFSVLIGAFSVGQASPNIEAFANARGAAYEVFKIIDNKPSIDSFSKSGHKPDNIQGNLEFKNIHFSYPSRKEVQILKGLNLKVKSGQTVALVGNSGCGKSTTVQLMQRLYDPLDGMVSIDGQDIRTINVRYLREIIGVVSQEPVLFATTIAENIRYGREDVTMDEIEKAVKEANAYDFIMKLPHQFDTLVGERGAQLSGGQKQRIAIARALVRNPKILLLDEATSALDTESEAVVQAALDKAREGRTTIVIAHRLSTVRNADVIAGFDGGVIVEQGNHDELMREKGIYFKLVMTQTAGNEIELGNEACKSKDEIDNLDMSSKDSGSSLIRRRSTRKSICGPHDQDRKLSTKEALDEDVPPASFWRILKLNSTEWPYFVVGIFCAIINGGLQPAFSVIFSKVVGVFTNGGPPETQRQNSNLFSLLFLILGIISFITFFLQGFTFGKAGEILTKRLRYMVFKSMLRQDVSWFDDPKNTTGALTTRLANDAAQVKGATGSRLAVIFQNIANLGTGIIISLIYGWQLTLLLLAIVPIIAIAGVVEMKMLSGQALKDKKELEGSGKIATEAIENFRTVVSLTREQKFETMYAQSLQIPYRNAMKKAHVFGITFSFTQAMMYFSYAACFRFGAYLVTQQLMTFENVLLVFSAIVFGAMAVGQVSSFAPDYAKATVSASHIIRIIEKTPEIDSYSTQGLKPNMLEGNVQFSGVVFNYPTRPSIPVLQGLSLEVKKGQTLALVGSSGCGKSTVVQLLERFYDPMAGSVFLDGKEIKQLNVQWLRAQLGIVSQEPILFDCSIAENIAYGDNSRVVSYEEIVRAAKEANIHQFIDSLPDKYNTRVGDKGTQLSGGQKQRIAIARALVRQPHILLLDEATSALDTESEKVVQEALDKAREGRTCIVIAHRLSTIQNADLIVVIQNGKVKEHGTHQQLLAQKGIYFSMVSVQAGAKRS

CC[C@]1(O)C[C@H]2CN(CCc3c([nH]c4ccccc34)[C@@](C(=O)OC)(c3cc4c(cc3OC)N(C=O)[C@H]3[C@@](O)(C(=O)OC)[C@H](OC(C)=O)[C@]5(CC)C=CCN6CC[C@]43[C@@H]65)C2)C1 [VINCRISTINE]
Activity: substrate [+]
